Source: ChEMBL document CHEMBL1201862, “PubChem BioAssay data set” (2004)
Active and inactive are the calls of the source.

Key:
Assay type in all cases: functional
[1] = target: T1, Apoptotic protease-activating factor 1 (Homo sapiens, UniProt O14727)
T1 sequence (O14727 whole entry): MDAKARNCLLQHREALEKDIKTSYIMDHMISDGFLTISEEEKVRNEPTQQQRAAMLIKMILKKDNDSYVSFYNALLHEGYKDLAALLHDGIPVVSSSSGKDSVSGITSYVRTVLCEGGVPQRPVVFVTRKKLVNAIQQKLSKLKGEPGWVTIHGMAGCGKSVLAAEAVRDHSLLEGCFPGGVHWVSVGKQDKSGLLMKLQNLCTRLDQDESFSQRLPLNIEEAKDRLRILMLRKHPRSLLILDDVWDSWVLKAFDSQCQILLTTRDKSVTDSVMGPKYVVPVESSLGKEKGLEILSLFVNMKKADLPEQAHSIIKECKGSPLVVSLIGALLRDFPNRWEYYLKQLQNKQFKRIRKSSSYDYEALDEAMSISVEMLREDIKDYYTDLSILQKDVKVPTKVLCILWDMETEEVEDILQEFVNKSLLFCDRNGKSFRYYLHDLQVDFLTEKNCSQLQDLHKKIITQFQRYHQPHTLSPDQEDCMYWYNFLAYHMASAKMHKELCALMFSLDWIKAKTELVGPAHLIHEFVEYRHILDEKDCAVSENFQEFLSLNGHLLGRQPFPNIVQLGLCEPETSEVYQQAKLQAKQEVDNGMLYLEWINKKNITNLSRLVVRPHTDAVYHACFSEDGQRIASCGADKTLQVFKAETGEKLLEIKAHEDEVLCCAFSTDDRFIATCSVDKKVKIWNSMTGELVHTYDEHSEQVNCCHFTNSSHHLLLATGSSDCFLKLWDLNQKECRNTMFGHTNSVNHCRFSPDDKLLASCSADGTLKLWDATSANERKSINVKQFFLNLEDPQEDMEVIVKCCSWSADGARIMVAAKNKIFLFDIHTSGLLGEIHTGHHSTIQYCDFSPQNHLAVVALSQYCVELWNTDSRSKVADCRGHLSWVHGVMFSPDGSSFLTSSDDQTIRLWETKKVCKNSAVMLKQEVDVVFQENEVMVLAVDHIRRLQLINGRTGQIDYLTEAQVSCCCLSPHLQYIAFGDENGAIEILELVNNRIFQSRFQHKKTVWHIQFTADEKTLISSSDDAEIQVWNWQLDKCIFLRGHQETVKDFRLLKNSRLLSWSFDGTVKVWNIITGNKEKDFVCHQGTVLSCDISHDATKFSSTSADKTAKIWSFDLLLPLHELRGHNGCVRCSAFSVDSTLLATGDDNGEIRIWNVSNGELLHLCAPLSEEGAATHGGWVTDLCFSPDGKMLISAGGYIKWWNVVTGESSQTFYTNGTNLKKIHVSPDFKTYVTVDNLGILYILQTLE

[2] = target: T2, Replicative DNA helicase DnaB (Mycobacterium tuberculosis, UniProt P9WMR3); assay: DnaB intein splicing inhibitors, dose response, biochemical, cell-free fluorescence (AID 449749)
T2 sequence (P9WMR3 whole entry): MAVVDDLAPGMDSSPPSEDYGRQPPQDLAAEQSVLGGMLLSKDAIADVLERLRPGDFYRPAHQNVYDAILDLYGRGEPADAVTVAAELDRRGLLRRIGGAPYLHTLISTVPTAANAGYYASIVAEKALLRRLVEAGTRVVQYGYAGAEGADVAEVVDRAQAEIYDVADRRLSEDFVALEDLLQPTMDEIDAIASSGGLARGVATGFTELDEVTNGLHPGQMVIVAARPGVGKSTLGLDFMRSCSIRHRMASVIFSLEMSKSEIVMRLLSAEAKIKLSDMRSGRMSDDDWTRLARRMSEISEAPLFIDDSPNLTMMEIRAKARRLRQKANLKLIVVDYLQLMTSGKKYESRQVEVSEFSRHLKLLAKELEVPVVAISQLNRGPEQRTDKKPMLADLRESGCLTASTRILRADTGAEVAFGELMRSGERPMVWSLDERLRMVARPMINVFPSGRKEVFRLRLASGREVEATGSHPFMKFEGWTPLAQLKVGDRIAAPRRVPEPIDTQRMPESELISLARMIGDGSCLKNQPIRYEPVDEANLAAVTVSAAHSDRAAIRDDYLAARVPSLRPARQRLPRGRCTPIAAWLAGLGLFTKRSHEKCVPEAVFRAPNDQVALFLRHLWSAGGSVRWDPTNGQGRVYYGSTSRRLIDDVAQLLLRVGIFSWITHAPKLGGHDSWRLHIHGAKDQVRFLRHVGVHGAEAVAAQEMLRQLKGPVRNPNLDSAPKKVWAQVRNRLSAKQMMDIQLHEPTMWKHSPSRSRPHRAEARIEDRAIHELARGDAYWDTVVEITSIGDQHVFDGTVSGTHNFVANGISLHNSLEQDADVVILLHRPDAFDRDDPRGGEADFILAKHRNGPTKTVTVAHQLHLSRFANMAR

[3] = target: T3, Protein RecA (Mycobacterium tuberculosis, UniProt P9WHJ3); assay: Fluorescence Cell-Free Homogeneous Dose Retest to Identify Inhibitors of RecA-Intein Splicing Activity. [Related pubchem assays (depositor defined):AID2097, AID2223, AID489010, AID492950]
T3 sequence (P9WHJ3 whole entry): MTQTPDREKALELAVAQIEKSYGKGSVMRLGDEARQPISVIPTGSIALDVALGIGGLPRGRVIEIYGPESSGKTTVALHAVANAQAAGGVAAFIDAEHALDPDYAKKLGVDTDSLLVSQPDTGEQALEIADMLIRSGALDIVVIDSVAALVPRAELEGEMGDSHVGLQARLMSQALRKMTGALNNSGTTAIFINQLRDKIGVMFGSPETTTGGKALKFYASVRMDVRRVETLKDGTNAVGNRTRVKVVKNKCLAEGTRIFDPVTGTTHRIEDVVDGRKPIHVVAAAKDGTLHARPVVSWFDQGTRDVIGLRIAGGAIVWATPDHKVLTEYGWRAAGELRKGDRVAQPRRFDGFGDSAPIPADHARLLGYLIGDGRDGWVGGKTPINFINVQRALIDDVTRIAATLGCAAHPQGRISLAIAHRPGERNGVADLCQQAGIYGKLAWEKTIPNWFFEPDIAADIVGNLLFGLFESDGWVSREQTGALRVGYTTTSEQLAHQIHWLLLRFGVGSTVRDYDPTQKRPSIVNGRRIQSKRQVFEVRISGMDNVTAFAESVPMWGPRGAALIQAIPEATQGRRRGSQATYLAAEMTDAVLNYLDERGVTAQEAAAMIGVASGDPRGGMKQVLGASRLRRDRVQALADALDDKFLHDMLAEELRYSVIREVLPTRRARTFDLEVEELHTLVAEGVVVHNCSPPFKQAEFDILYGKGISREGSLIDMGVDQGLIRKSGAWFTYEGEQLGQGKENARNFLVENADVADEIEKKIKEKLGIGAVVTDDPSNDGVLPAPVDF

Nc1c(N2CCCC2)cc(Cl)c2nonc12
IC50 [1]: 11 µM (active) | AC50 [2]: 8.9 µM (active) | EC50 [3]: 1.65 µM (active)

O=C(NNc1cc(N2CCOCC2)nc(N2CCOCC2)n1)c1ccc([N+](=O)[O-])cc1
IC50 [1]: 13.6 µM (active)

Oc1ccc(/N=C/c2ccc(OCc3ccccc3)cc2)cc1
AC50 [2]: > 380 µM (inactive) | EC50 [3]: > 380 µM (inactive)
